How the values were obtained:
melanoma cells B16 = assay: In vitro bleaching (whitening) activity: melanin content on melanoma cells B16; format: cell-based
Protocol: The in vitro whitening effect of HS was detected by measurement of melanin content on melanoma cells B16 (fibroblast-like cells able to produce melanin) after 6 days of contact with HS at 2 different concentrations: 0.1 mg/ml (0.01%) and 0.05 mg/ml (0.005%).
The negative control (NC) was represented by untreated cells (cell without any substance). The positive control (PC) was represented by cells treated with Hydroquinone 5 μg/ml (0.0005%).

[1] = test system: human keratinocytes cell cultures; assay: In vitro anti-oxidant activity against UVA: ROS reduction on human keratinocytes cell cultures; format: cell-based; conditions: for inhibition at 150 µg/mL: Homo sapiens, Keratinocyte, light or radiation study, Vit C 0.15 mg/ml
Protocol: In vitro Evaluation of the anti-ageing activity of cosmetic products through the investigation of their anti-oxidant and protective activity against UVA on human keratinocytes cell cultures. The antioxidant effect of HS is detected by measurement of reduction of free radicals as Reactive Oxygen Species (ROS) after exposure to 3 different UVA irradiation for 1 minute and 30 seconds (1′ 30″), for 3 minutes (3′) and for 4 minutes and 30 seconds (4′ 30″), with HS at 7 different concentrations: 0.031 mg/ml (0.0031%), 0.063 mg/ml (0.0063%), 0.125 mg/ml (0.0125%), 0.250 mg/ml (0.0250%), 0.500 mg/ml (0.0500%), 1.000 mg/ml (0.1000%) and […]. The negative control (NC) was: untreated cells (cells without any substance). The positive control (PC) was: Vitamin C (0.15 mg/ml) (0.015%).

fibroblast cells = assay: In vitro mitogenic activity: fibroblast cells proliferation and protein synthesis; format: cell-based
Protocol: The mitogenic effect of HS is detected by measurement of fibroblast cells proliferation, measurement of protein synthesis after exposure for 48 hours and 72 hours, using HS at 2 different concentrations: 0.1 mg/ml (0.01%) and 0.05 mg/ml (0.005%). The negative control (NC) is represented by untreated cells, the positive control (PC) is: EGF (Epidermal Growth Factor) (10 μg/ml) (0.001%).

basophil cells = assay: In vitro degranulation test on basophil cells (release of β-hexosaminidase); format: cell-based
Protocol: Basophil cells, when come in contact with irritant substances, give their biochemical response that is the secretion (by degranulation) of substances (such as histamine, leukotriens, proteolytic enzymes as hexosaminidase) that contribute to inflammatory events.
Inhibition in basophil cells degranulation is a measure of lenitive (anti-itching) effect of a substance. The in vitro lenitive effect of HS was detected by measurement of the release of β-hexosaminidase after 2 h of contact with HS at 4 different concentrations: 10 mg/ml (1%), 5 mg/ml (0.5%), 1 mg/ml (0.1%), 0.2 mg/ml (0.02%).
The negative control (NC) was represented by untreated cells (cells without any substance). The positive control (PC) was represented by basophil degranulation stimuli (by crosslinking the receptor FcεRI with a specific polyclonal antibody against to the α-chain stimulate the degranulation). The maximal stimulation (degranulation) is: cell treated with 1% Triton X-100. […]

[2] = APTT (European Pharmacopeia, 4th edition); conditions: purified heparan sulfate
Protocol: Organic sulfur, Uronic acid, Glucosamine, Optical rotation, total nitrogen and APTT were measured in accordance with the European Pharmacopeia, 4th edition. Electrophoresis was performed in accordance with R. Cappelletti et al. “A new Electrophoretic method for the separation of all Gags” Anal. Biochem. 99:311-315 (1979).

[3] = Hydroquinone 0.0005% (5 μg/ml), positive control
[4] = HS 0.005% (0.05 mg/ml), 6 days of contact
[5] = HS 0.01% (0.1 mg/ml), 6 days of contact

Oc1ccc(O)cc1 [Hydroquinone, reference compound]
% Melanin Synthesis Inhibition vs NC (melanoma cells B16; [3]): 76.8%
Melanin Content (μg melanin/mg protein) (melanoma cells B16; [3]): 10.8 μg melanin/mg protein

O=C1O[C@H]([C@@H](O)CO)C(O)=C1O [Vit C, Vitamin C, reference compound]
inhibition at 150 µg/mL ([1]; 1′30″ UVA): 33.5%
inhibition at 150 µg/mL ([1]; 3′00″ UVA): 31.4%
inhibition at 150 µg/mL ([1]; 4′30″ UVA): 12.7%

EGF: EGF (Epidermal Growth Factor), positive control [reference compound]
% cell proliferation vs NC (fibroblast cells; 48 h, EGF 10 μg/ml (0.001%)): 112.5%
% protein synthesis vs NC (fibroblast cells; 48 h, EGF 10 μg/ml (0.001%)): 116.6%
% cell proliferation vs NC (fibroblast cells; 72 h, EGF 10 μg/ml (0.001%)): 121.6%
% protein synthesis vs NC (fibroblast cells; 72 h, EGF 10 μg/ml (0.001%)): 119.0%

Triton X-100 [reference compound]
release of β-hexosaminidase OD at 450 nm (basophil cells; maximal stimulation: 1% Triton X-100): 0.377 OD

heparan sulphate sodium salt [HS]
% cell proliferation vs NC (fibroblast cells; 48 h, HS 0.05 mg/ml (0.005%)): 106.7%
% protein synthesis vs NC (fibroblast cells; 48 h, HS 0.05 mg/ml (0.005%)): 110.2%
% cell proliferation vs NC (fibroblast cells; 48 h, HS 0.1 mg/ml (0.01%)): 110.5%
% protein synthesis vs NC (fibroblast cells; 48 h, HS 0.1 mg/ml (0.01%)): 103.1%
% cell proliferation vs NC (fibroblast cells; 72 h, HS 0.05 mg/ml (0.005%)): 118.2%
% protein synthesis vs NC (fibroblast cells; 72 h, HS 0.05 mg/ml (0.005%)): 120.4%
% cell proliferation vs NC (fibroblast cells; 72 h, HS 0.1 mg/ml (0.01%)): 118.1%
% protein synthesis vs NC (fibroblast cells; 72 h, HS 0.1 mg/ml (0.01%)): 113.2%
highest effect for cell proliferation (increase over NC) (fibroblast cells; 72 hour, 0.05 mg/ml): 18.2%
highest effect for protein synthesis (increase over NC) (fibroblast cells; 72 hour, 0.05 mg/ml): 20.4%
APTT [2]: 6.31 U/mg
release of β-hexosaminidase OD at 450 nm (basophil cells; HS 0.2 mg/ml + PC (degranulation stimulus)): 0.112 OD
release of β-hexosaminidase OD at 450 nm (basophil cells; HS 0.2 mg/ml alone, 2 h of contact): 0.061 OD
release of β-hexosaminidase OD at 450 nm (basophil cells; HS 1 mg/ml + PC (degranulation stimulus)): 0.110 OD
release of β-hexosaminidase OD at 450 nm (basophil cells; HS 1 mg/ml alone, 2 h of contact): 0.062 OD
release of β-hexosaminidase OD at 450 nm (basophil cells; HS 5 mg/ml + PC (degranulation stimulus)): 0.055 OD
release of β-hexosaminidase OD at 450 nm (basophil cells; HS 5 mg/ml alone, 2 h of contact): 0.059 OD
release of β-hexosaminidase OD at 450 nm (basophil cells; HS 10 mg/ml + PC (degranulation stimulus)): 0.061 OD
release of β-hexosaminidase OD at 450 nm (basophil cells; HS 10 mg/ml alone, 2 h of contact): 0.066 OD
level of β-hexosaminidase with irritant substance (positive control) and HS (basophil cells; HS + PC, best efficacy at 0.5% and 1%): decrease in a dose dependent way
effect on basophil cells degranulation (basophil cells; HS alone at different concentration): no effect on basophil cells degranulation
ROS Inhibition % ([1]; 1′30″ UVA, HS 0.031 mg/ml): 25.3%
ROS Inhibition % ([1]; 1′30″ UVA, HS 0.063 mg/ml): 25.4%
ROS Inhibition % ([1]; 1′30″ UVA, HS 0.125 mg/ml): 23.5%
ROS Inhibition % ([1]; 1′30″ UVA, HS 0.250 mg/ml): 28.0%
ROS Inhibition % ([1]; 1′30″ UVA, HS 0.500 mg/ml): 30.6%
ROS Inhibition % ([1]; 1′30″ UVA, HS 1.000 mg/ml): 38.7%
ROS Inhibition % ([1]; 1′30″ UVA, HS 9.000 mg/ml): 30.7%
ROS Inhibition % ([1]; 3′00″ UVA, HS 0.031 mg/ml): 20.1%
ROS Inhibition % ([1]; 3′00″ UVA, HS 0.063 mg/ml): 21.8%
ROS Inhibition % ([1]; 3′00″ UVA, HS 0.125 mg/ml): 14.2%
ROS Inhibition % ([1]; 3′00″ UVA, HS 0.250 mg/ml): 22.9%
ROS Inhibition % ([1]; 3′00″ UVA, HS 0.500 mg/ml): 29.1%
ROS Inhibition % ([1]; 3′00″ UVA, HS 1.000 mg/ml): 35.7%
ROS Inhibition % ([1]; 3′00″ UVA, HS 9.000 mg/ml): 31.6%
ROS Inhibition % ([1]; 4′30″ UVA, HS 0.031 mg/ml): 6.2%
ROS Inhibition % ([1]; 4′30″ UVA, HS 0.063 mg/ml): 13.7%
ROS Inhibition % ([1]; 4′30″ UVA, HS 0.125 mg/ml): 10.3%
ROS Inhibition % ([1]; 4′30″ UVA, HS 0.250 mg/ml): 18.1%
ROS Inhibition % ([1]; 4′30″ UVA, HS 0.500 mg/ml): 24.7%
ROS Inhibition % ([1]; 4′30″ UVA, HS 1.000 mg/ml): 30.4%
ROS Inhibition % ([1]; 4′30″ UVA, HS 9.000 mg/ml): 26.3%
antioxidant efficacy compared with Vitamin C ([1]; HS at 0.1% concentration): comparable or even higher than the efficacy of Vitamin C
in vitro whitening effect (melanoma cells B16; 0.1 and 0.05 mg/ml, 6 days): shows in vitro whitening effect
% Melanin Synthesis Inhibition vs NC (melanoma cells B16; [4]): 5.2%
Melanin Content (μg melanin/mg protein) (melanoma cells B16; [4]): 44.4 μg melanin/mg protein
% Melanin Synthesis Inhibition vs NC (melanoma cells B16; [5]): 10.3%
Melanin Content (μg melanin/mg protein) (melanoma cells B16; [5]): 41.9 μg melanin/mg protein

— US20160338935A1, “PROCESS FOR THE PURIFICATION OF HEPARAN SULFATE AND USE THEREOF IN COSMETOLOGICAL AND DERMATOLOGICAL PREPARATIONS” (LABORATORI DERIVATI ORGANICI SPA, priority 2008, published 2016)
